Like-named read-outs stand apart in the source and are kept apart here.
Assays:
SH-SY5Y cells = experiment: Neuroprotection in cellular L-BMAA model (MTT cell viability); type: cell-based; conditions: L-BMAA 10 mM, inhibitors 10 μM, 24 h
Protocol: SH-SY5Y cells on a 96 well plate ere incubated with L-BMAA (10 mM) with or without inhibitors (10 μM). A control experiment was set at the same time without L-BMAA or inhibitors. After 24 h a MTT was performed to determine cell viability using known procedures in the literature. Experiment was performed in triplicate.
Mechanistically and structurally diverse GSK-3 inhibitors were tested in a cellular model of L-BMAA to study whether GSK-3 inhibition was implicated in neuroprotection at L-BMAA damage, using a forward chemical genetic approach. […] Cells were incubated with L-BMAA together with or without inhibitors for 24 h and cell viability was determined.

Human recombinant GSK-3β [1] = target: T1, Human recombinant GSK-3β (Homo sapiens, UniProt P49841); conditions: cited from earlier work
T1 construct: purchased Millipore (Millipore Iberica S.A.U.)

LC3-II and P-mTOR = experiment: Analysis of LC3-II and P-mTOR by western-blot (autophagy) in motor cortex and lumbar spinal cord; type: in vivo, Rattus norvegicus
Protocol: The entire brain and the lumbar spinal cord were rapidly removed and stored at -80°C.
To analyse LC3-II and P-mTOR by western-blot, 100 mg of motor cortex and lumbar spinal cord of each animal were homogenized in a RIPA buffer: 50 mM Tris–HCl pH 7.4, 50 mM NaCl, Nonidet P-40 1%, 1 mM EDTA, 1 mM PMSF, 1 mg/mL aprotinin, […] leupeptin, 1 mg/mL pepstatin, at a rate of […] of tissue. The mixture was sonicated for 2 min with 2 s pulses of sonication and 2 s off at amplitude of 40%. Once the samples were homogenized, the evaluation and protein electrophoresis was performed. The protocol was adapted from Zhang et al as described in Muñoz-Sáez et al.
Before the electrophoresis, the protein concentrations of all samples were determined by Bradford assay (Sigma–Aldrich Inc., St. Louis, MO, USA; Bradford, 1976).
Electrophoresis for protein separation was performed by SDS-PAGE. In all cases, the concentrating gel contained 6% polyacrylamide. Regarding LC3-II, the percentage of polyacrylamide was 12% for the separating gel and for P-mTOR an 8% polyacrylamide separating gel was used. Subsequently, proteins from the gels were transferred to a nitrocellulose membrane (AmershamTM HybondTM–ECL) in a wet system at 10 V o/n and 4°C. Membranes were incubated with following primary antibodies: a rabbit polyclonal anti-tubulin β-III (Novus Biologicals, Littleton, CO, USA), a rabbit polyclonal anti-LC3-II (Novus Biologicals, Littleton, CO, USA) and rabbit polyclonal anti-mTOR (Phospho-Ser2448) (Novus Biologicals, Littleton, CO, USA). As a secondary antibody, we applied Donkey anti-rabbit IgG-Fc Horseradish Peroxidase (HRP) (Bethyl Laboratories, Montgomery, TX, USA). All the antibodies were used according to the manufacturers’ specifications. Proteins were detected by enhanced chemiluminescence. Digital images were acquired using a Fujifilm Intelligent Darkbox II (Fuji Systems USA, Stamford, CT) and the image processing for quantification was conducted with free image processing software Image J.

[2] = Weight progression of treated rats; type: in vivo, Rattus norvegicus; conditions: alone or co-administered, VP2.51 2.5 mg/Kg i.p. 15 days, L-BMAA 300 mg/kg i.p. 5 days, 100 days
Source text: After this time the animals were sacrificed.

male rats, Wistar strain = experiment: Neurological evaluation in L-BMAA motor neuron disease model
Protocol: Assays were carried out using male rats of Rattus norvegicus, albino variety, Wistar strain, that were supplied by Harlan Interfauna Ibérica S.A. (Barcelona, Spain). Animals were kept at constant temperature (21 ± 1°C) on a reversed light/dark cycle with diets and water ad libitum (A04 commercial rodent diet, Panlab, Barcelona, Spain). […] Animal’s health was monitored by weight control. […] Animals were sacrificed at the established time point under general anaesthesia with isoflurane (ISOFLO®, Abbott Laboratories, Abbott Park, IL, USA).
At weaning time (postnatal day 21) animals, with a weight between 45 and 55 g, were intraperitoneally (i.p.) injected with 300 mg/kg of L-BMAA (L-BMAA hydrochloride, Sigma-Aldrich, Ref. B107), during 5 consecutive days. The injected solution was composed by 50 mg of L-BMAA dissolved in 500 μl of PBS (0.1 mg / μl).
VP2.51 was dissolved in a stock solution of DMSO (dimethyl sulfoxide, Sigma) at 100 mg/mL. This stock was used to prepare a final solution of 1 mg/mL in PBS with 5% DMSO and 5% Tween® 80 (Sigma). Rats were injected i.p. 2.5 mg/Kg beginning at two different times: on the first day after treatment with L-BMAA (PT1) and on day post-treatment 30 (PT30). Injection treatment was performed for 15 consecutive days.
In summary, 6 different groups of 12 animals each were used: Control (only PBS injected), L-BMAA, L-BMAA+VP2.51 PT1, VP2.51 PT1, L-BMAA+VP2.51 PT30, VP2.51 PT30. Weight monitoring was performed every day during 100 days. After this time the animals were sacrificed.
The neurological tests were carried out blindly as described by de Munck et al [13], once a week during 100 days. Briefly, the neurological assess was carried out with three different tests: ambulation, tail suspension test and strength test. […] In the tail suspension test, the rat was suspended by the tail at 10 cm over the surface. The ability to keep the hind limbs in the normal neutral position adopted by rodents in such situation, i.e., describing a “T” was evaluated, together with the stiffness of the limbs and the inter-limb coordination during kicking. The strength test and was carried out setting down the rats on a flat surface, both forelegs and hind limbs on it, while pulling the tail softly to the opposite direction of animal usual move course. The ability the rats had to drag and offer resistance, assessing their faculty to kept hind limbs under the body without spreading their legs away from it was observed. The neurological evaluation was established in a scale comprised between 0 and 10, where 0 is the evaluation given to animals which are not symptomatic, control animals, and 10 belongs to a state of total functional loss of the hindlimbs and postural control.

[3] = In vitro parallel artificial membrane permeability assay (PAMPA-BBB); type: in vitro ADME, porcine; conditions: for Pe: PBS:DMSO (95:5), 4 h at 25°C, mean ± SD of 3 independent experiments
Protocol: Prediction of the brain penetration was evaluated using a parallel artificial membrane permeability assay (PAMPA). Ten commercial drugs, phosphate buffer saline solution at pH 7.4 (PBS), DMSO and dodecane were purchased from Sigma, Across organics, Aldrich and Fluka. […] Filter PDVF membrane units (diameter 30 mm, pore size 0.45 μm) from Symta were used to filter the samples. A 96-well plate UV reader (Thermoscientific, Multiskan spectrum) was used for the UV measurements. Test compounds were dissolved in DMSO (250 μL). 25 μL of this compound stock solution was taken and 225 μL of DMSO and 4750 μL of PBS pH 7.4 buffer were added to reach 5% of DMSO concentration in the experiment. These solutions were filtered. The acceptor 96-well microplate was filled with 180 μL of PBS:DMSO (95:5). The donor 96-well plate was coated with 4 μL of porcine brain lipid in dodecane (20 mg mL^-1) and after 5 minutes, 180 μL of each compound solution was added. […] Then the donor plate was carefully put on the acceptor plate to form a “sandwich”, which was left undisturbed for 4 h at 25°C. During this time the compounds diffused from the donor plate through the brain lipid membrane into the acceptor plate. After incubation, the donor plate was removed. The concentration of VP2.51 and commercial drugs in the acceptor and the donor wells was determined by UV plate reader. Every sample was analyzed at three to five wavelengths, in 3 wells and in three independent runs. […] Validation was made comparing the reported permeabilities values of commercial drugs with the experimental data obtained employing this methodology.
Finally, the ability to cross the blood-brain barrier (BBB) was determined. […] VP2.51 permeability through the BBB was evaluated by a parallel artificial membrane permeability assay (PAMPA) using porcine brain membrane lipid and ten commercial drugs following the methodology described by Di et al.

casein kinase-1δ (CK-1δ) = casein kinase-1δ (CK-1δ) (Homo sapiens, UniProt P48730); experiment: CK-1δ inhibition following a described protocol; type: biochemical
[4] = test system: panel of fifty different human kinases; conditions: fixed concentration 10 μM
Protocol: Fig 1 Biological activity of VP2.51 on GSK-3 and other protein kinases. […] B) Kinetic GSK-3 inhibition data determined for VP2.51. ATP concentrations in the reaction mixture varied from 1 to 50 μM. […] Each point is the mean of two different experiments, each one analyzed in duplicate. C) Kinase profiling of VP2.51 on human recombinant kinases. The percentage (%) of kinase activity after the treatment with a fixed concentration (10 μM) of the compound is shown.

Human recombinant GSK-3β [5] = target: T1, Human recombinant GSK-3β; experiment: Inhibition of GSK-3 (Kinase-Glo luminescent assay; ADP-Glo for kinetics); type: biochemical
Protocol: Human recombinant GSK-3β was purchased from Millipore (Millipore Iberica S.A.U.). The prephosphorylated polypeptide substrate was purchased from Millipore (Millipore Iberica S.A.U.). Kinase-Glo Luminescent Kinase Assay was obtained from Promega (Promega Biotech Ibérica, SL). ATP and all other reagents were from Sigma-Aldrich (St. Louis, MO). Assay buffer contained 50 mM HEPES (pH 7.5), 1 mM EDTA, 1 mM EGTA, and 15 mM magnesium acetate.
The method of Baki et al was followed to analyse the inhibition of GSK-3β. Kinase-Glo assays were performed in assay buffer using black 96-well plates. […] After 30 min incubation at 30°C the enzymatic reaction was stopped with 40 μl of Kinase-Glo reagent. Glo-type luminescence was recorded after 10 min using a FLUOstar Optima (BMG Labtechnologies GmbH, Offenburg, Germany) multimode reader. The activity is proportional to the difference of the total and consumed ATP. The inhibitory activities were calculated on the basis of maximal activities measured in the absence of inhibitor. […] To investigate the inhibitory mechanism of VP2.51 on GSK-3β, a kinetic study varying both ATP (from 1 to 50 μM) and VP.251 (from 0.5 to 1 μM) concentrations were performed using the ADP-Glo Kinase Assay.
To study the type of enzymatic inhibition for the compounds, measurements after several times of incubation of the enzyme with the inhibitor VP2.51 were performed.

multiple sclerosis model = test system: multiple sclerosis model; design: method as in PMID 23606540; conditions: cited from earlier work
cytochromes P450 family = test system: cytochromes P450 family; design: method as in earlier work; conditions: cited from earlier work

T1 sequence (P49841 whole entry): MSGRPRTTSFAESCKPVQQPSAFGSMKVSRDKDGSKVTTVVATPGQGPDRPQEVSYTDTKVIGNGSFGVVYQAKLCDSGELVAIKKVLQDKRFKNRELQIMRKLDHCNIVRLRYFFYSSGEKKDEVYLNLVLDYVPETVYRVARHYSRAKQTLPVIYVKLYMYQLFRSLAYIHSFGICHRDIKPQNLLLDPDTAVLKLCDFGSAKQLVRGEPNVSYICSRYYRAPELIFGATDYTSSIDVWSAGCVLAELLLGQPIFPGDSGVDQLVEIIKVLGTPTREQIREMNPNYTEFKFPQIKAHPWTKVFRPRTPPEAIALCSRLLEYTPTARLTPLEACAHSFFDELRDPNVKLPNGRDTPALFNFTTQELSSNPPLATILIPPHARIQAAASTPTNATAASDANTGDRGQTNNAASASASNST
casein kinase-1δ (CK-1δ), sequence (P48730 whole entry): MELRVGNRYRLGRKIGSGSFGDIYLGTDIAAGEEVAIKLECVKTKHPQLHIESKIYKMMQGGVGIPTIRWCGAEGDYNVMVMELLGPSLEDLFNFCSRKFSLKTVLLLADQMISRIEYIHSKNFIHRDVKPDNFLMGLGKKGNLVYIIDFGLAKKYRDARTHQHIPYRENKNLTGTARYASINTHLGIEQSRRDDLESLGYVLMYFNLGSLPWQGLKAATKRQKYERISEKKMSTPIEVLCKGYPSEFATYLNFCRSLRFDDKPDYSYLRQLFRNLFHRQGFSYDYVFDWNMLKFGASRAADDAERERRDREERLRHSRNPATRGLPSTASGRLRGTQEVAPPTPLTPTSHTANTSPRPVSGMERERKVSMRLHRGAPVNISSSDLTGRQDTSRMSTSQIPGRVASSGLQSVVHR

CC(=O)C1=C(c2cn(C)c3ccccc23)C(=O)NC1=O [INH-38]
Cell viability, protection from L-BMAA damage (SH-SY5Y cells): protect cells from L-BMAA damage | Kind of GSK-3 inhibition (Human recombinant GSK-3β [1]): ATP-competitive inhibitors

c1ccc(-c2n/c(=N/CCN3CCOCC3)sn2-c2ccccc2)cc1 [ITDZ 55]
Cell viability, protection from L-BMAA damage (SH-SY5Y cells): protect cells from L-BMAA damage | Kind of GSK-3 inhibition (Human recombinant GSK-3β [1]): substrate competitive inhibitor

CNC[C@H](N)C(=O)O [L-BMAA, β-N-methylamino-L-alanine, reference compound]
P-mTOR levels in lumbar spinal cord vs control animals (LC3-II and P-mTOR; L-BMAA treated rats, t = 3.257, p = 0.031): significantly higher | P-mTOR levels in motor cortex vs control animals (LC3-II and P-mTOR; L-BMAA treated rats, t = 5.889, p = 0.0042): significantly higher | LC3-II levels in motor cortex vs control animals (LC3-II and P-mTOR; L-BMAA treated rats, t = 5.969, p = 0.027): significantly higher | LC3-II levels in lumbar spinal cord vs control animals (LC3-II and P-mTOR; L-BMAA treated rats, t = 46.85, p = 0.0005): significantly higher | Effect on weight progression / physical development [2]: do not affect physical development | neurological evaluation score (scale 0-10) (male rats, Wistar strain; rats treated with L-BMAA only, 300 mg/kg i.p. 5 consecutive days): 7 points

CN1C(C(=O)Nc2ccccn2)=C(O)c2ccccc2S1(=O)=O [Piroxicam, reference compound]
Pe ([3]; PAMPA-BBB): 1.7 ± 0.3 10^-6 cm s^-1

CN(C)CCCN1c2ccccc2Sc2ccccc21 [Promazine, reference compound]
Pe ([3]; PAMPA-BBB): 8.9 ± 1.0 10^-6 cm s^-1

CCCCCCCCCCCC(=O)NNC(=O)c1c(O)c2ccccc2n(CC)c1=O [VP0.7]
Cell viability, protection from L-BMAA damage (SH-SY5Y cells): protect cells from L-BMAA damage | Kind of GSK-3 inhibition (Human recombinant GSK-3β [1]; does not compete with ATP nor substrate): allosteric inhibitor

COc1ccc(CNC(=O)Nc2nc(C)c(C(C)=O)s2)cc1 [VP2.51, 1-(5-Acetyl-4-methyl-1,3-thiazol-2-yl)-3-(4-methoxybenzyl)urea]
P-mTOR level in lumbar spinal cord vs L-BMAA treated animals (LC3-II and P-mTOR; L-BMAA+VP2.51 at PT1): lower non-significant | LC3-II levels in motor cortex vs L-BMAA treated animals (LC3-II and P-mTOR; L-BMAA+VP2.51 at PT1, t = 3.547, p <0.05): significantly lower | LC3-II levels in lumbar spinal cord vs L-BMAA treated animals (LC3-II and P-mTOR; L-BMAA+VP2.51 at PT1, t = 5.083, p <0.01): lower | P-mTOR levels in motor cortex vs L-BMAA treated animals (LC3-II and P-mTOR; L-BMAA+VP2.51 at PT1, t = 7.223, p <0.001): significantly lower | Effect on weight progression / physical development [2]: do not affect physical development | Cell viability, protection from L-BMAA damage (SH-SY5Y cells): protect cells from L-BMAA damage | IC50 (casein kinase-1δ (CK-1δ)): 7.28 ± 0.87 µM | CK-1δ IC50 relative to GSK-3 IC50 (casein kinase-1δ (CK-1δ); fold over GSK-3 inhibition): tenfold | BBB prediction ([3]; PAMPA-BBB): CNS + (CNS + when they present a permeability > 4.15 x 10^−6 cm s^-1) | Pe ([3]; PAMPA-BBB): 7.6 ± 0.4 10^-6 cm s^-1 | Papp at 4 h ([3]; pig, pH 7.4, PAMPA, porcine brain membrane lipid, read-out: effective permeability): 7.6 ± 0.4 ×10⁻⁶ cm/s | Kinase selectivity profile [4]: targeting only both isoforms of GSK-3, α and β, and with less potency, casein kinase-1δ (CK-1δ) | Inhibitory mechanism (kinetic experiments) (Human recombinant GSK-3β [5]; ATP 1 to 50 μM, GS-2 12.5 μM, ADP-Glo): competes in vitro with ATP | Type of enzymatic inhibition (time dependent experiments) (Human recombinant GSK-3β [5]; VP2.51 at 1 and 2 μM, several times of incubation with enzyme): reversible inhibition | IC50 (Human recombinant GSK-3β [5]; human recombinant enzyme, 1 μM ATP, 30 min, 30°C, read-out: GSK-3 inhibitory activity in vitro IC50): 0.62 ± 0.15 µM | Efficacy in multiple sclerosis model (multiple sclerosis model): effective | Inhibition of cytochromes P450 family (cytochromes P450 family): weak or partial inhibitor | Evolution of neurological evaluation vs L-BMAA only group (male rats, Wistar strain; L-BMAA + VP2.51 PT1 (2.5 mg/Kg i.p. 15 days from day 1 after L-BMAA), F = 89.34, p <0.0001): markedly improved | Evolution of neurological evaluation vs L-BMAA only group (male rats, Wistar strain; L-BMAA + VP2.51 PT30 (2.5 mg/Kg i.p. 15 days from day 30 post-treatment)): did not show significant differences | neurological evaluation score (scale 0-10) (male rats, Wistar strain; rats treated exclusively with VP2.51 (PT1 and PT30), 2.5 mg/Kg i.p. 15 days): zero | Neurological pathologies or observable toxicities (male rats, Wistar strain; rats, VP2.51 2.5 mg/Kg i.p. 15 days): does not promote either neurological pathologies or observable toxicities

From publication PMC5025054 (PLoS ONE, 2016)
